Series [1] is described as follows: Procedure for determining photostability (bleaching in vitro, continuous 785 nm irradiation). Format: physicochemical.
Experimental: 4C): Bleaching in vitro: Capillaries filled with 2.5 μM solutions in serum were continuously irradiated using a 785 nm laser (100 mW/cm^2) and frames were acquired for 20 minutes. Bleaching kinetics were extracted by analyzing the mean counts in an ROI overtime
Imaging was performed on a custom-built setup. LUMICS laser unit LU0785DLU250-S70AN03 (25 W) 785 nm″ was used for excitation. Laser was externally controlled using a LUMICS laser diode control system. Laser output was coupled in a 4×1 fan-out fiber-optic bundle (THORLABS BF46LSO1) of 600 μm core diameter for each optical path. The output from the fiber was fixed in an excitation cube (THORLABS KCB1EC/M), reflected off of a mirror (THORLABS BBE1-E03), and passed through a positive achromat (THORLABS AC254-050-B), SP filter (THORLABS FESH800) and an engineered diffuser (THORLABS ED1-S20-MD or ED1-S50-MD) to provide uniform illumination over the working area. In a typical experiment, the excitation flux in the field of view was adjusted to be close to 100 mWcm^−2. Power density was determined using a THORLABS energy meter console PM100D in combination with a THORLABS S130C sensor (measurement uncertainty of ±3%). The working area was covered by blackout fabric (THORLABS BK5). Emitted light was directed through two filters (THORLABS FELH800) screwed onto a EDMUND OPTICS Acktar Hexa-Black 25 mm noise reduction extension tube, via a C-mount camera lens (NAVITAR SWIR-35) onto an NIR-camera (PCO Edge 4.2 or Prime BSI). The software μManager was used to externally control the camera. The assembly was partially enclosed to avoid excess light while enabling manipulation of the field of view during operation.
For each dye (conjugate), solutions in H2O and FBS with an OD (785 nm)<1.0 in a 1 cm cuvette (HELLMA 115B-QS) were prepared. […] In order to be able to make useful comparison between different samples and experiments, the time axis was converted into a number of absorbance events by multiplication with the “absorptions per molecule per second”.
A further series deals with MDA-MB-468 cells. As to the kind of experiment: In vivo distribution of NIR-fluorescent Panitumumab conjugates in tumor bearing mice. To be noted: 24 hrs after intravenous injection; 3 μg or 100 μg dose. From the text:
FIG. 5: Comparing Pan-sNIR (NIR-fluorescent Panitumumab) and Pan-IRDye800CW in tumor bearing mice post intraveneous injection. Mice were generated by subcutaneous implantation of MDA-MB-468 cells.

Take `C#CCCCCNC(=O)C(=C\C=C\C1=[N+](CCCCS(=O)(=O)[O-])c2ccc(S(=O)(=O)[O-])cc2C1(C)C)/C=C/C=C1/N(CCCCS(=O)(=O)[O-])c2ccc(S(=O)(=O)[O-])cc2C1(C)C.[Na+].[Na+].[Na+]` [sNIR, sodium 2-((1E,3Z,5E)-7-((E)-3,3-dimethyl-5-sulfonato-1-(4-sulfonatobutyl)indolin-2-ylidene)-4-(hex-5-yn-1-ylcarbamoyl)hepta-1,3,5-trien-1-yl)-3,3-dimethyl-1-(4-sulfonatobutyl)-3H-indol-1-ium-5-sulfonate]: in series [1] (fetal bovine serum (FBS)), the “more photostable than NIR, IRDye®8000W” value was found to be 2.5 times and the “more stable than ICG” value was found to be 1.6 times. Besides, the “bleaching slower than NIR, ICG and IRDye®8000W” value in series [1] (water) amounted to 3.5 times.
As to “Pan-8000W: Panitumumab-IRDye800, prepared in a similar fashion [reference compound]”, the “tumor signal than/over the liver” value in the series with MDA-MB-468 cells is 1.4-1.8 ×.

Source of the values: patent publication US20260117070A1, “NEAR-INFRARED FLUORESCENT HEPTAMETHINE DYE CONJUGATES WITH FAVORABLE BLEACHING PROPERTIES” (HELMHOLTZ ZENTRUM MÜNCHEN DEUTSCHES FORSCHUNGSZENTRUM FÜR …, priority 2022, published 2026).
